Read-outs that look alike come from different tables or passages of the source.
Tests used:
Type in all cases: cell-based, Mycobacterium tuberculosis
[1] = test system: M. tuberculosis T113, resistant to isoniazid (INH), rifampicin (RIF), ethambutol (ETB) and ofloxacin (OFX); set-up: MIC 2: MIC of the substance tested in combination / MIC 1: MIC of the substance tested alone: unit not given beside the values; conditions: for MIC 2: MIC of the substance tested in combination / MIC 1: MIC of the substance tested alone: strain T113
[2] = test system: M tuberculosis T3609, resistant to ofloxacin (OFX) and streptomycin; set-up: MIC 2: MIC of the substance tested in combination / MIC 1: MIC of the substance tested alone: unit not given beside the values; conditions: for MIC 2: MIC of the substance tested in combination / MIC 1: MIC of the substance tested alone: strain T3609
M. tuberculosis = conditions: all the strains (H37Rv, T3609, T113)

## CC[C@@H](CO)NCCN[C@@H](CC)CO [ETB, ethambutol]
[1]; combination MFL + ETB
  MIC 2: MIC of the substance tested in combination: 12.5
[1]
  MIC 1: MIC of the substance tested alone: 25.0

## C[C@H]1COc2c(N3CCN(C)CC3)c(F)cc3c(=O)c(C(=O)O)cn1c23 [LVX, levofloxacin]
[2]; combination MEF + LVX
  MIC 2: MIC of the substance tested in combination: 2.50
[2]
  MIC 1: MIC of the substance tested alone: 2.50
[1]; combination MEF + LVX
  MIC 2: MIC of the substance tested in combination: 0.31
[1]
  MIC 1: MIC of the substance tested alone: 0.62

## NNC(=O)c1ccncc1 [INH, isoniazid]
[2]; combination MFL + INH
  MIC 2: MIC of the substance tested in combination: 0.015
[2]
  MIC 1: MIC of the substance tested alone: 0.5
[1]; combination MFL + INH
  MIC 2: MIC of the substance tested in combination: 3.12
[1]
  MIC 1: MIC of the substance tested alone: 6.25

## COc1c(N2C[C@@H]3CCCN[C@@H]3C2)c(F)cc2c(=O)c(C(=O)O)cn(C3CC3)c12 [MOX, moxifloxacin]
[2]; combination MFL + MOX
  MIC 2: MIC of the substance tested in combination: 0.62
[2]
  MIC 1: MIC of the substance tested alone: 1.25
[1]; combination MFL + MOX
  MIC 2: MIC of the substance tested in combination: 0.31
[1]
  MIC 1: MIC of the substance tested alone: 0.25

## NC(=O)c1cnccn1 [PYR, pyrazinamide]
[2]
  MIC 1: MIC of the substance tested alone: >100
[1]
  MIC 1: MIC of the substance tested alone: >100

## CC1COc2c(N3CCN(C)CC3)c(F)cc3c(=O)c(C(=O)O)cn1c23 (stereo not drawn) [OFX, ofloxacin]
[2]; combination MFL + OFX
  MIC 2: MIC of the substance tested in combination: 2.5
[2]
  MIC 1: MIC of the substance tested alone: 5.0
[1]; combination MFL + OFX
  MIC 2: MIC of the substance tested in combination: 0.62
[1]
  MIC 1: MIC of the substance tested alone: 1.25

## O=C(O)c1cn(C2CC2)c2cc(N3CCNCC3)c(F)cc2c1=O [CPX, ciprofloxacin]
[2]; combination MEF + CPX
  MIC 2: MIC of the substance tested in combination: 3.12
[2]
  MIC 1: MIC of the substance tested alone: 5.00
[1]; combination MEF + CPX
  MIC 2: MIC of the substance tested in combination: 0.31
[1]
  MIC 1: MIC of the substance tested alone: 0.62

## OC(c1cc(C(F)(F)F)nc2c(C(F)(F)F)cccc12)C1CCCCN1 (stereo not drawn) [Mefloquine, mefloquine]
M. tuberculosis
  cross-resistance (MIC across strains): no cross-resistance
[2]; combination MEF + CPX
  MIC 2: MIC of the substance tested in combination: 3.12
[2]; combination MEF + LVX
  MIC 2: MIC of the substance tested in combination: 2.50
[2]; combination MFL + GAT
  MIC 2: MIC of the substance tested in combination: 0.31
[2]; combination MFL + INH
  MIC 2: MIC of the substance tested in combination: 0.015
[2]; combination MFL + MOX
  MIC 2: MIC of the substance tested in combination: 0.62
[2]; combination MFL + OFX
  MIC 2: MIC of the substance tested in combination: 2.5
[2]; combination MFL + PYR
  MIC 2: MIC of the substance tested in combination: 0.62
[2]; combination MFL + SPR
  MIC 2: MIC of the substance tested in combination: 0.62
[2]; strain T3609, Tables 1B and 2A
  MICcombination: 25 µg/mL
[1]; combination MEF + CPX
  MIC 2: MIC of the substance tested in combination: 0.31
[1]; combination MEF + LVX
  MIC 2: MIC of the substance tested in combination: 0.31
[1]; combination MFL + GAT
  MIC 2: MIC of the substance tested in combination: 0.15
[1]; combination MFL + INH
  MIC 2: MIC of the substance tested in combination: 3.12
[1]; combination MFL + LYN
  MIC 2: MIC of the substance tested in combination: 0.31
[1]; combination MFL + MOX
  MIC 2: MIC of the substance tested in combination: 0.31
[1]; combination MFL + OFX
  MIC 2: MIC of the substance tested in combination: 0.62
[1]; combination MFL + PYR
  MIC 2: MIC of the substance tested in combination: 0.62
[1]; combination MFL + SPR
  MIC 2: MIC of the substance tested in combination: 0.12
[1]; strain T113, Table 2B
  MICcombination: 25 µg/mL

## C[C@@H]1CN(c2c(F)c(N)c3c(=O)c(C(=O)O)cn(C4CC4)c3c2F)C[C@H](C)N1 [SPR, sparfloxacin]
[2]; combination MFL + SPR
  MIC 2: MIC of the substance tested in combination: 0.62
[2]
  MIC 1: MIC of the substance tested alone: 1.25
[1]; combination MFL + SPR
  MIC 2: MIC of the substance tested in combination: 0.12
[1]
  MIC 1: MIC of the substance tested alone: 0.12

## CC(=O)NC[C@H]1CN(c2ccc(N3CCOCC3)c(F)c2)C(=O)O1 [LYN, linezolid]
[1]; combination MFL + LYN
  MIC 2: MIC of the substance tested in combination: 0.31
[1]
  MIC 1: MIC of the substance tested alone: 0.50

## COc1c(N2CCNC(C)C2)c(F)cc2c(=O)c(C(=O)O)cn(C3CC3)c12 (stereo not drawn) [GAT, gatifloxacin]
[2]; combination MFL + GAT
  MIC 2: MIC of the substance tested in combination: 0.31
[2]
  MIC 1: MIC of the substance tested alone: 0.62
[1]; combination MFL + GAT
  MIC 2: MIC of the substance tested in combination: 0.15
[1]
  MIC 1: MIC of the substance tested alone: 0.12
